Experimental data reported in US7973075B2, “Kainate receptor-selective epimeric analogs of dysiherbaine” (priority 2007, dated 2011).

Assays:
GluR2 = target: T1, GluR2 (Rattus norvegicus, UniProt P19491); conditions: Table 1; comparison value of MSVIII-19 (Sanders et al., 2005); read-out: GluR2 binding affinity (displacement of [3H]AMPA); cited from earlier work
T1 construct: expressed in transfected cells; host or cells: COS-7 or HEK-T/17

GluR5-2a [1] = target: T2, GluR5-2a (Rattus norvegicus, UniProt P22756, DEL402-416); conditions: Sanders et al., 2005; cited from earlier work
T2 construct: expressed in transfected cells; host or cells: HEK-293-T/17
T2 sequence (P22756 with tags, fused parts or gaps isoform P22756-2 limits assumed, stated change not applied): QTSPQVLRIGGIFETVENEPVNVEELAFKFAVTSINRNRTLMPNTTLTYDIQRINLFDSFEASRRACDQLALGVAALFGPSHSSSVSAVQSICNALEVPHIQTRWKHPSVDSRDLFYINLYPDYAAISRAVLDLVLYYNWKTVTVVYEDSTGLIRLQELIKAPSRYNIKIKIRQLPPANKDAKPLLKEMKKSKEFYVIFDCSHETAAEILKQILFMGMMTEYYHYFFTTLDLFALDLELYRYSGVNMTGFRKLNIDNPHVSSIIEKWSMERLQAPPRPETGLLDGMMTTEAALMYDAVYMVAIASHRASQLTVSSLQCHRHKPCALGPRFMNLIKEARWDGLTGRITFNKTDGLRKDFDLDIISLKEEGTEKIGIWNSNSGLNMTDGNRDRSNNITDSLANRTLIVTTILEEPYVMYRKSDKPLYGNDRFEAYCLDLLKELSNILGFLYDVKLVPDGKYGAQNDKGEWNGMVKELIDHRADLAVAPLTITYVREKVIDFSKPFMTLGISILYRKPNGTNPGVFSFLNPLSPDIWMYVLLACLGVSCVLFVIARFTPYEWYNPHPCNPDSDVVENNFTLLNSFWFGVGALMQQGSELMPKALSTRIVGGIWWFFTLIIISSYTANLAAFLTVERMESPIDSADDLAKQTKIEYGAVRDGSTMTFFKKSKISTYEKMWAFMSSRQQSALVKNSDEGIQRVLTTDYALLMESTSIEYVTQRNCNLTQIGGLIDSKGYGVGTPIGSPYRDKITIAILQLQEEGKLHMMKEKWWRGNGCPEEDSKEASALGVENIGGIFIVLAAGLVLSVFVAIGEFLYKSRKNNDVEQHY

GluR5 = target: T3, GluR5 (Rattus norvegicus, UniProt P22756); conditions: Tables 1-2; comparison values of neoDH and MSVIII-19 (Sanders et al., 2005); read-out: GluR5 binding affinity (displacement of [3H]kainate); cited from earlier work
T3 construct: expressed in transfected cells; HEK 293 (patch clamp)
T3 sequence (P22756 with tags, fused parts or gaps isoform P22756-2): as the sequence (P22756 with tags, fused parts or gaps isoform P22756-2 limits assumed, stated change not applied) above

GluR1 = target: T4, GluR1 (Rattus norvegicus, UniProt P19490); conditions: Table 1; comparison value of MSVIII-19 (Sanders et al., 2005); read-out: GluR1 binding affinity (displacement of [3H]AMPA); cited from earlier work
T4 construct: expressed in transfected cells; host or cells: COS-7 or HEK-T/17
T4 sequence (P19490 19-907 isoform P19490-2 limits assumed): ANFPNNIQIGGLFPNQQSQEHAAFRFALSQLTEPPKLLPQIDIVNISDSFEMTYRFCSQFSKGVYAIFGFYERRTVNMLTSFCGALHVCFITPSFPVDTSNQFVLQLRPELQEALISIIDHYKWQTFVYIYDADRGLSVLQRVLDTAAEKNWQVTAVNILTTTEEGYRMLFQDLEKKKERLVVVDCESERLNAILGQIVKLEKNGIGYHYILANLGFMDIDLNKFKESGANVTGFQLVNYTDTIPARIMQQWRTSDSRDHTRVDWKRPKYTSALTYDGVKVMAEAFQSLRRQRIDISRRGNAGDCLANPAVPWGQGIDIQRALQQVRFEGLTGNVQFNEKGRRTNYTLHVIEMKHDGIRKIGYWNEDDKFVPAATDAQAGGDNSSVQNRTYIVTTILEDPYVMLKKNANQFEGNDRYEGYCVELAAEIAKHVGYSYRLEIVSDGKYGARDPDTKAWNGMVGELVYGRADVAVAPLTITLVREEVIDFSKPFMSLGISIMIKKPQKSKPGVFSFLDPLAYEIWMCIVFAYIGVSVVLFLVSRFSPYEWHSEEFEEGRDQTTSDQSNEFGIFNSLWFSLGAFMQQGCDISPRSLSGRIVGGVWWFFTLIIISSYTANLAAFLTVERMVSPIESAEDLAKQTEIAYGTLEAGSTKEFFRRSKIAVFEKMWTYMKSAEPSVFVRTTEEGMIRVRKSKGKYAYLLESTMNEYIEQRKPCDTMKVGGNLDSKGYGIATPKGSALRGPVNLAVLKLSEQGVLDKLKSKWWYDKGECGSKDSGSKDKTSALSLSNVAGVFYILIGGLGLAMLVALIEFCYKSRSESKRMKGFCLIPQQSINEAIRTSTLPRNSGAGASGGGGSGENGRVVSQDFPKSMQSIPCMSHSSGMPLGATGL

KA2 [2] = target: T5, KA2 (Rattus norvegicus, UniProt Q63273); conditions: Sanders et al., 2005; cited from earlier work
T5 construct: expressed in transfected cells; host or cells: HEK-293-T/17
T5 sequence (Q63273 15-979): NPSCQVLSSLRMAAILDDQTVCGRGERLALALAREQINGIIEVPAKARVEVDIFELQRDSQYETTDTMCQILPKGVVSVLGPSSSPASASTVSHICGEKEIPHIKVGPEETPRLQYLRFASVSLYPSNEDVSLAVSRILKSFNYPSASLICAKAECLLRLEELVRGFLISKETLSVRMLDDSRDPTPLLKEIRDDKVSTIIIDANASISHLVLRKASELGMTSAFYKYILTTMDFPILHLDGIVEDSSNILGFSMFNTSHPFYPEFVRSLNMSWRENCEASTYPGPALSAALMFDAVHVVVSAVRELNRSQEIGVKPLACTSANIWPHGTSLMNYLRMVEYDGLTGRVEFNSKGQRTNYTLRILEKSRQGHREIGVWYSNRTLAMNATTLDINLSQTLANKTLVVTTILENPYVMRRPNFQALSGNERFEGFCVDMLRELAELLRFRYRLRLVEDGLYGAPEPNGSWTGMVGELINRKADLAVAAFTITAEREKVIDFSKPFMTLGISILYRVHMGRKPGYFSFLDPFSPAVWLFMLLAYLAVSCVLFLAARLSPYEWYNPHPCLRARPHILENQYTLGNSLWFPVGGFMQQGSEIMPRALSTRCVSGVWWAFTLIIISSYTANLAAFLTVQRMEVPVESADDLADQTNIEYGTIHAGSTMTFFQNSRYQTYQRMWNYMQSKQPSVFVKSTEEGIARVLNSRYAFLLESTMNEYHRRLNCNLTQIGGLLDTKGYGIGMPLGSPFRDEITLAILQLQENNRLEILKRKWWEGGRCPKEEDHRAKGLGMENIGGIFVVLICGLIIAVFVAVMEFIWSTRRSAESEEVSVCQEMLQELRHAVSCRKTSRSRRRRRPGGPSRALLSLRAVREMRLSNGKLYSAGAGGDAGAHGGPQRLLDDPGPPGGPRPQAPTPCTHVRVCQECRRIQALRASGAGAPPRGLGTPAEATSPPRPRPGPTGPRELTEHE

KA2 [3] = target: T5, KA2; conditions: Tables 1-2; comparison values of neoDH and MSVIII-19 (Sanders et al., 2005); cited from earlier work
GluR5-2a [4] = target: T2, GluR5-2a; conditions: Sanders et al., 2005; read-out: IC50 for inhibition of glutamate-evoked currents, GluR5-2a receptors; cited from earlier work
GluR6 = target: T6, GluR6 (Rattus norvegicus, UniProt P42260); test: Patch-clamp recordings from transfected HEK 293 cells, Example 1; assay type: cell-based; conditions: Example 1, FIG. 5
T6 construct: expressed in transfected cells; HEK 293 (patch clamp)
T6 sequence (P42260 32-908): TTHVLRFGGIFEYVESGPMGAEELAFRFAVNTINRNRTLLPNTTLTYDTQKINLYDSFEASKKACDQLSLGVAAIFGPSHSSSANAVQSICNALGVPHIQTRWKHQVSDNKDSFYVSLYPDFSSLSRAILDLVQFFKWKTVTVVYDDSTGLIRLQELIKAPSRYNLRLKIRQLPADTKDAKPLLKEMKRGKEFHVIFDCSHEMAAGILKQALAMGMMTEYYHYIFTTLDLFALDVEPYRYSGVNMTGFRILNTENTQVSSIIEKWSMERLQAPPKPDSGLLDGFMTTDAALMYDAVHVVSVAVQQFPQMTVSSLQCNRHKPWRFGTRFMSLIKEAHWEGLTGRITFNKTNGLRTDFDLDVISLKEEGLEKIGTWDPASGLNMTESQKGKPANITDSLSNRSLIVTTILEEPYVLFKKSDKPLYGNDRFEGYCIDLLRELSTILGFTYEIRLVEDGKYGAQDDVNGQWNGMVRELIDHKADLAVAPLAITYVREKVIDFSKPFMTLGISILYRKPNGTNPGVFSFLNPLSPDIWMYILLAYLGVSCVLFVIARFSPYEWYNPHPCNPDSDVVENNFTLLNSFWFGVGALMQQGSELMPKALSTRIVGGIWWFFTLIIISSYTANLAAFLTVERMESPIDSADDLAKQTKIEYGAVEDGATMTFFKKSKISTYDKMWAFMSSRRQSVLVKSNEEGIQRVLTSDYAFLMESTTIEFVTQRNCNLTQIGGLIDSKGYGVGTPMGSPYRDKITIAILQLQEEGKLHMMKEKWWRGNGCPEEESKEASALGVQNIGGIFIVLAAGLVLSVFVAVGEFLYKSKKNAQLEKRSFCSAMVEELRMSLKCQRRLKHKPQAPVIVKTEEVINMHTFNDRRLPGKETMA
Experimental: Non-specific binding was defined in the presence of 1 mM glutamate. The effect of these analogs on electrophysiology was assessed as follows. HEK 293 cells were transfected with receptor cDNAs in combination with eGFP cDNA. Patch-clamp recordings from transfected cells were made 24-72 hours later using a fast application system described previously (Swanson et al., NEURON 1997; 19:913-26). (See FIG. 3.)
The effect of these analogs on electrophysiology also was assessed as described above. […] The results further indicate that the C8 and C9 substituents are necessary for binding to all AMPA and KAR subunits except for GluR5 subunits. The C9 polar group must be present and in the correct spatial orientation for high-affinity GluR5 subunit binding. Inter-domain contacts mediated by residue 721S are critical determinants of binding affinity. The epimer analog 9-deoxy-neoDH mimics the binding affinity of the di-deoxy analog MSVIII-19, but acts as an agonist rather than an antagonist.

T1 sequence (P19491 22-883 isoform P19491-2 limits assumed): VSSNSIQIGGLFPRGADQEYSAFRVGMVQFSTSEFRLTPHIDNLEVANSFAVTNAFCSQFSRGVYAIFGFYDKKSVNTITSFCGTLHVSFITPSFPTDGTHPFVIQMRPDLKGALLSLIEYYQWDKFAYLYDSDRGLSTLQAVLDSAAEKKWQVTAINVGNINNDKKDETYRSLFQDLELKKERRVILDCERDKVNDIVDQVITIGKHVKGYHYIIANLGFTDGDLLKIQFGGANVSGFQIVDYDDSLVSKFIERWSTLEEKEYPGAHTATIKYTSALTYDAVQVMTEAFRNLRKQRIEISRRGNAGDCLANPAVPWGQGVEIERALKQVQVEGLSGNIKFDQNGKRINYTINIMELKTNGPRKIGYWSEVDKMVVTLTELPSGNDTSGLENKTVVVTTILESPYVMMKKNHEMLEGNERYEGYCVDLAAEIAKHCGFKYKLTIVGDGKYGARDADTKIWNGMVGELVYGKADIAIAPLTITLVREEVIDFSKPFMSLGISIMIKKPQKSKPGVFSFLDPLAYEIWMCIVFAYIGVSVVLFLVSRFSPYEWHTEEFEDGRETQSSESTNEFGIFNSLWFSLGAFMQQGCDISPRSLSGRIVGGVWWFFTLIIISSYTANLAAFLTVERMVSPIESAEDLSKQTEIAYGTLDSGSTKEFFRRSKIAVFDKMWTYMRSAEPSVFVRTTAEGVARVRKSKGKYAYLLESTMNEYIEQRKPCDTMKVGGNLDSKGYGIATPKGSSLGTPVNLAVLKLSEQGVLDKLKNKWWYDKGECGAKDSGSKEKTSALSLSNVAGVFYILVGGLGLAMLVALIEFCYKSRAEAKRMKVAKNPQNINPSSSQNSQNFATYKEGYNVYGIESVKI

Row | SMILES | Ki (GluR2) [nM] | Ki (GluR5-2a [1]) [nM] | Ki (GluR5) [nM] | Ki (GluR1) [nM] | Ki KA2 (KA2 [2]) [nM] | KA2 binding affinity (displacement of [3H]kainate) (KA2 [3]) [µM] | IC50 (GluR5-2a [4]) [nM] | agonist or antagonist at GluR6 (electrophysiology) (GluR6)
1 | N[C@@H](C[C@]1(C(=O)O)C[C@H]2OCCC[C@H]2O1)C(=O)O [MSVIII-19, 8,9-dideoxy-neoDH] | > 100000 | 128 | 128 | > 100000 | >100000 | >100 | 23 | 
2 | N[C@@H](C[C@@]1(C(=O)O)CC2OCC(O)C(O)C2O1)C(=O)O (single isomer, unassigned) [4-epi-neoDH, 4-epi-neodysiherbaine] |  |  |  |  |  |  |  | GluR5/GluR6 antagonist
